± gives the standard deviation of the averaged measurements.
What was measured:
Test in all cases: cell viability (CellTiter-Glo luminescence) relative to DMSO (fraction of DMSO control); higher = higher signal (more live cells for CellTiter-Glo)
Details in all cases: 72 h
DU4475 = tested on: DU4475
Method: (§1)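 MOLM13, DU4475, HDQP1 and IGROV1 cells were treated with compounds in 384-well format for 72 h (KASUMI-1 in 96-well plates, RPMI + 10% FCS, 72 h). Viability was read with CellTiter-Glo and cell death with CellTox Green, both normalised to DMSO vehicle. Doses ranged 0.001-30 µM.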

IGROV1 = tested on: IGROV1
Method: as §1

MOLM13 = tested on: MOLM13
Method: as §1

KASUMI-1 = tested on: KASUMI-1
Method: as §1

HDQP1 = tested on: HDQP1
Method: as §1

Structure (SMILES)	cell viability (DU4475; 0.01 µM)	cell viability (DU4475; 0.1 µM)	cell viability (DU4475; 0.3 µM)	cell viability (DU4475; 1 µM)	cell viability (DU4475; 3 µM)	cell viability (DU4475; 10 µM)	cell viability (DU4475; 30 µM)	cell viability (IGROV1; 0.01 µM)	cell viability (IGROV1; 0.1 µM)	cell viability (IGROV1; 0.3 µM)	cell viability (IGROV1; 1 µM)	cell viability (IGROV1; 3 µM)	cell viability (IGROV1; 10 µM)	cell viability (IGROV1; 30 µM)	cell viability (MOLM13; 0.01 µM)	cell viability (MOLM13; 0.1 µM)	cell viability (MOLM13; 0.3 µM)	cell viability (MOLM13; 1 µM)	cell viability (MOLM13; 3 µM)	cell viability (MOLM13; 10 µM)	cell viability (MOLM13; 30 µM)	cell viability (KASUMI-1; 0.000948683 µM)	cell viability (KASUMI-1; 0.003 µM)	cell viability (KASUMI-1; 0.00948683 µM)	cell viability (KASUMI-1; 0.03 µM)	cell viability (KASUMI-1; 0.3 µM)	cell viability (KASUMI-1; 0.948683 µM)	cell viability (KASUMI-1; 3 µM)	cell viability (KASUMI-1; 9.48683 µM)	cell viability (KASUMI-1; 30 µM)	cell viability (HDQP1; 0.01 µM)	cell viability (HDQP1; 0.1 µM)	cell viability (HDQP1; 0.3 µM)	cell viability (HDQP1; 1 µM)	cell viability (HDQP1; 3 µM)	cell viability (HDQP1; 10 µM)	cell viability (HDQP1; 30 µM)	cell viability (KASUMI-1; 0.0948683 µM)
Cc1cc(-c2cc(NC(=O)c3ccc(C(C)(C)C)cc3)[nH]n2)ccn1 [3i-1246]	1 ± 0.023	1 ± 0.048	0.983 ± 0.023	0.966 ± 0.045	0.92 ± 0.029	0.435 ± 0.12	0.00106 ± 0.0011	0.998 ± 0.05	0.958 ± 0.072	0.866 ± 0.042	0.864 ± 0.095	0.811 ± 0.053	0.587 ± 0.085	0.19 ± 0.051	0.959 ± 0.052	0.755 ± 0.043	0.418 ± 0.062	0.21 ± 0.031	0.0386 ± 0.018	0.0136 ± 0.037	0.000242 ± 0.0027	1.076 ± 0.0022	1.13 ± 0.067	1.17 ± 0.087	1.22 ± 0.064	1.1 ± 0.073	0.962 ± 0.2	0.566 ± 0.018	0.239 ± 0.0055	0.00978 ± 0.0007	0.98 ± 0.034	0.99 ± 0.031	0.986 ± 0.057	0.928 ± 0.083	0.943 ± 0.068	0.628 ± 0.098	0.178 ± 0.052	
Cn1cc(-c2cc(NC(=O)c3ccc(C(C)(C)C)cc3)n[nH]2)ccc1=O [3i-1248]	1.01 ± 0.029	1.01 ± 0.031	1 ± 0.035	0.984 ± 0.043	0.893 ± 0.054	0.572 ± 0.078	0.0157 ± 0.016	0.989 ± 0.047	0.982 ± 0.075	0.953 ± 0.12	0.861 ± 0.067	0.783 ± 0.047	0.568 ± 0.075	0.0746 ± 0.044	0.988 ± 0.09	0.912 ± 0.088	0.773 ± 0.053	0.459 ± 0.07	0.179 ± 0.049	0.00744 ± 0.0056	-0.000138 ± 0.00087	1.15 ± 0.053	1.25 ± 0.078	1.36 ± 0.027	1.503 ± 0.0079	1.41 ± 0.072	1.37 ± 0.046	1.11 ± 0.061	0.455 ± 0.036	0.00672 ± 0.00072	0.995 ± 0.032	0.989 ± 0.033	0.981 ± 0.082	0.973 ± 0.046	0.913 ± 0.048	0.807 ± 0.054	0.269 ± 0.13	1.43 ± 0.11
